From patent US10479786B2, “Protein kinase inhibitors” (Princeton Drug Discovery Inc, priority 2016, dated 2019)

Key:
ABL = target: T1, ABL (Homo sapiens, UniProt P00519); test: Off-chip Mobility Shift Assay, kinase inhibition; format: biochemical; settings: recombinant ABL; for inhibition at 0.001 µM: at 1 nM; for inhibition at 0.01 µM: at 10 nM
T1 construct: purchased Carna Biosciences, Inc

ABL(E255K) = target: T2, ABL(E255K) (Homo sapiens, UniProt P00519, E255K); test: Off-chip Mobility Shift Assay, kinase inhibition; format: biochemical; settings: recombinant ABL(E255K); for inhibition at 0.001 µM: at 1 nM; for inhibition at 0.01 µM: at 10 nM
T2 construct: purchased Carna Biosciences, Inc

ACK = target: T3, ACK (Homo sapiens, UniProt Q07912); test: Off-chip Mobility Shift Assay, kinase inhibition; format: biochemical; settings: at 10 nM; recombinant ACK
T3 construct: purchased Carna Biosciences, Inc

ARG = target: T4, ARG (Homo sapiens, UniProt P42684); test: Off-chip Mobility Shift Assay, kinase inhibition; format: biochemical; settings: at 10 nM; recombinant ARG; read-out: inhibition
T4 construct: purchased Carna Biosciences, Inc

BLK = target: T5, BLK (Homo sapiens, UniProt P51451); test: Off-chip Mobility Shift Assay, kinase inhibition; format: biochemical; settings: at 10 nM; recombinant BLK
T5 construct: purchased Carna Biosciences, Inc

DDR2 = target: T6, DDR2 (Homo sapiens, UniProt Q16832); test: Off-chip Mobility Shift Assay, kinase inhibition; format: biochemical; settings: at 10 nM; recombinant DDR2; read-out: inhibition
T6 construct: purchased Carna Biosciences, Inc
T6 sequence (Q16832 22-855): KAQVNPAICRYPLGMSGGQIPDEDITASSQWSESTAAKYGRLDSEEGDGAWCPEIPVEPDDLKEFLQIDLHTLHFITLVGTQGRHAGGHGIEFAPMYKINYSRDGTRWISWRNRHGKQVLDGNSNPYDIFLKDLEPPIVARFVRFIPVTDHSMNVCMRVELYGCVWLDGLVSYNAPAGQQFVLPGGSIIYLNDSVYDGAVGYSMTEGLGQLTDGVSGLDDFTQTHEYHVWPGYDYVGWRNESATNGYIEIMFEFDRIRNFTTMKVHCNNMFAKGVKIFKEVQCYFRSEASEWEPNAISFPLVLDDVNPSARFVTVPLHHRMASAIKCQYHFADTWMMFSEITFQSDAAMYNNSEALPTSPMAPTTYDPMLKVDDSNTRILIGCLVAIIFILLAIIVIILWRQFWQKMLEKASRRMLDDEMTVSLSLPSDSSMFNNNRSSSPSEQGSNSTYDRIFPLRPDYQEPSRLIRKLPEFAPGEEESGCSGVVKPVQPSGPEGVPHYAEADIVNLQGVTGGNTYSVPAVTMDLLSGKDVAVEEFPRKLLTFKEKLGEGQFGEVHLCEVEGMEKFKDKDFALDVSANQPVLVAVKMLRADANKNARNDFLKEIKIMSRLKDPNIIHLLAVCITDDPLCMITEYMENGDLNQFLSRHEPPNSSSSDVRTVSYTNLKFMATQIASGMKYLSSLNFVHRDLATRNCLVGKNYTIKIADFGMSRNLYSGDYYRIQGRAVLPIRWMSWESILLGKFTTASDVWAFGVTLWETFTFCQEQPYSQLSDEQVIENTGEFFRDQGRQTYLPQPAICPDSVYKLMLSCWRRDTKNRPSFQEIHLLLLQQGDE

FGR = target: T7, FGR (Homo sapiens, UniProt P09769); test: Off-chip Mobility Shift Assay, kinase inhibition; format: biochemical; settings: at 10 nM; recombinant FGR; read-out: inhibition
T7 construct: purchased Carna Biosciences, Inc

FRK = target: T8, FRK (Homo sapiens, UniProt P42685); test: Off-chip Mobility Shift Assay, kinase inhibition; format: biochemical; settings: at 10 nM; recombinant FRK
T8 construct: purchased Carna Biosciences, Inc

FYN(isoform a) = target: T9, FYN(isoform a) (Homo sapiens, UniProt P06241); test: Off-chip Mobility Shift Assay, kinase inhibition; format: biochemical; settings: at 10 nM; recombinant FYN(isoform a)
T9 construct: purchased Carna Biosciences, Inc

HCK = target: T10, HCK (Homo sapiens, UniProt P08631); test: Off-chip Mobility Shift Assay, kinase inhibition; format: biochemical; settings: recombinant HCK; for inhibition at 0.001 µM: at 1 nM; for inhibition at 0.01 µM: at 10 nM, read-out: inhibition
T10 construct: purchased Carna Biosciences, Inc

LYNa = target: T11, LYNa (Homo sapiens, UniProt P07948); test: Off-chip Mobility Shift Assay, kinase inhibition; format: biochemical; settings: recombinant LYNa; for inhibition at 0.001 µM: at 1 nM; for inhibition at 0.01 µM: at 10 nM, read-out: inhibition
T11 construct: purchased Carna Biosciences, Inc

PDGFRα = target: T12, PDGFRα (Homo sapiens, UniProt P16234); test: Off-chip Mobility Shift Assay, kinase inhibition; format: biochemical; settings: at 10 nM; recombinant PDGFRα; read-out: inhibition
T12 construct: purchased Carna Biosciences, Inc

PDGFRβ = target: T13, PDGFRβ (Homo sapiens, UniProt P09619); test: Off-chip Mobility Shift Assay, kinase inhibition; format: biochemical; settings: at 10 nM; recombinant PDGFRβ; read-out: inhibition
T13 construct: purchased Carna Biosciences, Inc

SRC = target: T14, SRC (Homo sapiens, UniProt P12931); test: Off-chip Mobility Shift Assay, kinase inhibition; format: biochemical; settings: recombinant SRC; for inhibition at 0.001 µM: at 1 nM; for inhibition at 0.01 µM: at 10 nM
T14 construct: purchased Carna Biosciences, Inc

YES = target: T15, YES (Homo sapiens, UniProt P07947); test: Off-chip Mobility Shift Assay, kinase inhibition; format: biochemical; settings: recombinant YES; for inhibition at 0.001 µM: at 1 nM; for inhibition at 0.01 µM: at 10 nM
T15 construct: purchased Carna Biosciences, Inc

PIK3CA/PIK3R1 = target: T16, PIK3CA/PIK3R1 (Homo sapiens, UniProt P42336); test: Off-chip Mobility Shift Assay, kinase inhibition; format: biochemical; settings: at 10 nM; recombinant PIK3CA/PIK3R1
T16 construct: purchased Carna Biosciences, Inc

[1] = tested on: battery of selected protein kinases; test: In vitro screen of a battery of selected protein kinases (summary statement); format: biochemical; settings: BTK, BMX, ABL, ABL(E255K), SRC, ACK, ARG, BLK, DDR2, EPHA, FGR, FMS, FRK, FYN, HCK, LCK, LYN, PDGFRα, PDGFRβ, YES, PIK3CA/PIK3R1, among others
SU-DHL-4 = test: Cell inhibition assay (PrestoBlue, 48 h); format: cell-based; settings: Homo sapiens, SU-DHL-4, 48 h, SU-DHL-4 diffuse large B-cell lymphoma cells, read-out: IC50, inhibition of growth
Mino = test: Cell inhibition assay (PrestoBlue, 48 h); format: cell-based; settings: Homo sapiens, Mino cells, read-out: IC50, inhibition of growth

T11 sequence (P07948 whole entry): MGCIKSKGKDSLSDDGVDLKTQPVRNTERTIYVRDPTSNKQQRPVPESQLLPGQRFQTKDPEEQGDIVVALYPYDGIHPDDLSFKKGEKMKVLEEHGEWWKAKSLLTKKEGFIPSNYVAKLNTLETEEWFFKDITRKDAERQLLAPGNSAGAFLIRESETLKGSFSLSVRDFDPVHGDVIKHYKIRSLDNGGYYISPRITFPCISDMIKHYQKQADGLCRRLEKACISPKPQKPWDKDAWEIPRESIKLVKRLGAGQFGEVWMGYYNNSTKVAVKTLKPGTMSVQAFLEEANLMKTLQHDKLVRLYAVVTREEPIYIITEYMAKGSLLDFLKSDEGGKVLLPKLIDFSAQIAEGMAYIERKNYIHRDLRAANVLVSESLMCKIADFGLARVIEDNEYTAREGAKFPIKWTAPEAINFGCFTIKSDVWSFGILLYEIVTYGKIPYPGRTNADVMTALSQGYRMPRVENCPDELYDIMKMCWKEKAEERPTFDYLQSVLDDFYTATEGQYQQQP
T9 sequence (P06241 whole entry, canonical isoform): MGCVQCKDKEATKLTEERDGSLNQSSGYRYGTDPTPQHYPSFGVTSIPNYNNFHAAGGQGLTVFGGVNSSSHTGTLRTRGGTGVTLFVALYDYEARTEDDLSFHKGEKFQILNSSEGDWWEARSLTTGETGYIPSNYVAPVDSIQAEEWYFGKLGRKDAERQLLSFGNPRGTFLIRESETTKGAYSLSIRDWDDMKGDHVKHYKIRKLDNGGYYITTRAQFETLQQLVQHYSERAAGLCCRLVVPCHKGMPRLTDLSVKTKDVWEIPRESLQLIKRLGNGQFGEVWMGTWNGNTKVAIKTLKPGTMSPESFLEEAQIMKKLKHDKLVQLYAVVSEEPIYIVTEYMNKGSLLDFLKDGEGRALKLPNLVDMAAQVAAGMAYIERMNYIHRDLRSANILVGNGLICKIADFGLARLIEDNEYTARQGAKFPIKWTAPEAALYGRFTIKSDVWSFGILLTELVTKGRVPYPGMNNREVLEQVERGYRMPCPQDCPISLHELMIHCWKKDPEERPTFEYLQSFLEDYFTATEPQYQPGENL
T2 sequence (P00519 whole entry E255K): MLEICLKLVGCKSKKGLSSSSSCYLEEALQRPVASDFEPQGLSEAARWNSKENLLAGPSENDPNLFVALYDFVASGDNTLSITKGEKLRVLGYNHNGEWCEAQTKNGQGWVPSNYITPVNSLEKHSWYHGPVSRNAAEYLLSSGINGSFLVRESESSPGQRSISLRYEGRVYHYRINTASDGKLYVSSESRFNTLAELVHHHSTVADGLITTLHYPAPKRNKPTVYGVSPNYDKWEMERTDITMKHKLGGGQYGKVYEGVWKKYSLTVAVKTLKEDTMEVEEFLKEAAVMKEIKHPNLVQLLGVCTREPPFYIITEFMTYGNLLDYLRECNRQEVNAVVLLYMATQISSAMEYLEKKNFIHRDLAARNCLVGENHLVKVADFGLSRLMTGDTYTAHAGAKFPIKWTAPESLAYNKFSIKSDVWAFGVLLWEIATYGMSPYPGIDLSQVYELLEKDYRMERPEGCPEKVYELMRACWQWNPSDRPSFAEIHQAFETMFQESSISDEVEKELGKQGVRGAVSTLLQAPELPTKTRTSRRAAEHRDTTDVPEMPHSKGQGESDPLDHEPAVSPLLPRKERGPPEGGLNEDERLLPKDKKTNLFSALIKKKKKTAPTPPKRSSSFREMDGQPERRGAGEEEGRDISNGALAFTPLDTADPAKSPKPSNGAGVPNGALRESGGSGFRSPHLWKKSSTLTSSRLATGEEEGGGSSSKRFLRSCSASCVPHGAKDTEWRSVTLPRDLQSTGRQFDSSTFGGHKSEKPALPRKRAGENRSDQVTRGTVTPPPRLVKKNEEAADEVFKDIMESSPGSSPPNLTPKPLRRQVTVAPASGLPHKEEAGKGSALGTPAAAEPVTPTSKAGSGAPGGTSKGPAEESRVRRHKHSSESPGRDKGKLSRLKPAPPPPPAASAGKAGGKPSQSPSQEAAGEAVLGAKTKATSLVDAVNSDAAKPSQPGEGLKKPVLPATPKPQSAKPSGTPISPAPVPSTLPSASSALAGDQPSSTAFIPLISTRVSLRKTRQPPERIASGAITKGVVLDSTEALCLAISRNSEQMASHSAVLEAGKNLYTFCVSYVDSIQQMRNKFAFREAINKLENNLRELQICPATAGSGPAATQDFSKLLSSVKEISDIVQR
T10 sequence (P08631 whole entry): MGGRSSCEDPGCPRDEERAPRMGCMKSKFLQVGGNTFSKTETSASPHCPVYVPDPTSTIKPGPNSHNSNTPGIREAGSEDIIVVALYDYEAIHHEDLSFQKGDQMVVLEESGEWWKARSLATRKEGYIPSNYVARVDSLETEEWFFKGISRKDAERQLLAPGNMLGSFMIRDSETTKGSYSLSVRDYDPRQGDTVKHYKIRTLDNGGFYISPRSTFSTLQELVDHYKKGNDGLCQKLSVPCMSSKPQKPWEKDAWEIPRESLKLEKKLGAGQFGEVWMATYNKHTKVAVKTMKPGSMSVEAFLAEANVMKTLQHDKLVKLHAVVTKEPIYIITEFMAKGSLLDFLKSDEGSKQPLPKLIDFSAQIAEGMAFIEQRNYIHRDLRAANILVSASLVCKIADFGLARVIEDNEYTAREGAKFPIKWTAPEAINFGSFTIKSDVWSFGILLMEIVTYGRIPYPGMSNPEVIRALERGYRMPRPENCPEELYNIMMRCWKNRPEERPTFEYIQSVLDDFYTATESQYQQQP
T12 sequence (P16234 24-1089): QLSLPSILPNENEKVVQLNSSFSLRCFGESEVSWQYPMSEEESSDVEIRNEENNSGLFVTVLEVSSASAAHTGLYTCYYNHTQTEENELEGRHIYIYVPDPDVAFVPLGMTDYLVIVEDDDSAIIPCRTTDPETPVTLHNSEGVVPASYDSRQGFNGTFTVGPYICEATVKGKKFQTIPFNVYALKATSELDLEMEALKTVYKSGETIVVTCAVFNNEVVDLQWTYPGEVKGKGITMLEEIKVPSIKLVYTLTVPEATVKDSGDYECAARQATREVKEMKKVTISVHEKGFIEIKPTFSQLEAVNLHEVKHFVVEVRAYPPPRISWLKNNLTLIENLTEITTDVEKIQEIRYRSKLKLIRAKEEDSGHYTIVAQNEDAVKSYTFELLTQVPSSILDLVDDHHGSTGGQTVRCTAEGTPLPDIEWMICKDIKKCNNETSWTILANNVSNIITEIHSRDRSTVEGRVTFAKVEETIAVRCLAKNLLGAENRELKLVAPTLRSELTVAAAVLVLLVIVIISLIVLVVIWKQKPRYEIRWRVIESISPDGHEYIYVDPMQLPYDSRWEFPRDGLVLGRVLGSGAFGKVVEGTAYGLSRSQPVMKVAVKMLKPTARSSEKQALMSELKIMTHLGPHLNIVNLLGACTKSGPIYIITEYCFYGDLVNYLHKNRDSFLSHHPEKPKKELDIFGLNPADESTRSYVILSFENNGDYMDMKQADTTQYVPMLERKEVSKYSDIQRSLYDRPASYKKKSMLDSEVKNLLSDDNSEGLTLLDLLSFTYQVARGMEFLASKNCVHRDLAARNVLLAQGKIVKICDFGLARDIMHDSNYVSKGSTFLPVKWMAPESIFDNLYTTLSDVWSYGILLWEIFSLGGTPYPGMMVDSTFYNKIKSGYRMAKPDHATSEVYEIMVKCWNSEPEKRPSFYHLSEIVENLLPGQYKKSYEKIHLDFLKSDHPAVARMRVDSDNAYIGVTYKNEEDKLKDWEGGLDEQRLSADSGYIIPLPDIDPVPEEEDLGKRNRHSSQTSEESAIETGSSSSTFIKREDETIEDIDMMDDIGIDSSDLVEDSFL
T8 sequence (P42685 whole entry): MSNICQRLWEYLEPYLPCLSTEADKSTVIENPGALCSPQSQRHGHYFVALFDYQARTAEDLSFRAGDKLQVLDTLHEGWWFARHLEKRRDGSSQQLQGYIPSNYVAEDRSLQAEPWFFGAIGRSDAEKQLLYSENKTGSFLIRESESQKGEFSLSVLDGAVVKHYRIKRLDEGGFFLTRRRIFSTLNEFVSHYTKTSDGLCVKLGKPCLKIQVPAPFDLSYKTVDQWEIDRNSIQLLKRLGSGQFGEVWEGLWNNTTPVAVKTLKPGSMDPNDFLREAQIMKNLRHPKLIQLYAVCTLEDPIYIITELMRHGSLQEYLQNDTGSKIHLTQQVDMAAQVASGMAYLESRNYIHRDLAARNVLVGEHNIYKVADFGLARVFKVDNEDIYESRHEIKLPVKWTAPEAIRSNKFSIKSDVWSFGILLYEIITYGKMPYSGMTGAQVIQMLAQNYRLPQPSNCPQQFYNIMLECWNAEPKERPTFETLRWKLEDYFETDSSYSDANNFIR
T7 sequence (P09769 whole entry): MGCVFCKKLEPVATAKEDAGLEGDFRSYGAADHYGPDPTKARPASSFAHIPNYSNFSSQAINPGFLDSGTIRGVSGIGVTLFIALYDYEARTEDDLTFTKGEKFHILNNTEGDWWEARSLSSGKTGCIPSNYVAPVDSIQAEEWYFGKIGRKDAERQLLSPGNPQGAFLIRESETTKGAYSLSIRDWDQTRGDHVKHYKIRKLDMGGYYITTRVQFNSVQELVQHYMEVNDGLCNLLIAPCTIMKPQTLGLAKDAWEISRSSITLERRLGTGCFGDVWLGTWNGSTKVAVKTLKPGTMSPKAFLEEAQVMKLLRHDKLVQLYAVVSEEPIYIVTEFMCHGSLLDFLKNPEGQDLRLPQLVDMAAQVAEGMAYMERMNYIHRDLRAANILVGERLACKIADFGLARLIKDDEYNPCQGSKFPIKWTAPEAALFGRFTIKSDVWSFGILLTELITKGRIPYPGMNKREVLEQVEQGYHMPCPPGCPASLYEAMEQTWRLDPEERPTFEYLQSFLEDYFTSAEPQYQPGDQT
T1 sequence (P00519 whole entry): as the sequence (P00519 whole entry E255K) above, with K255E counted along it

| Compound | inhibition at 0.001 µM (ABL) [%] | inhibition at 0.01 µM (ABL) [%] | inhibition at 0.001 µM (ABL(E255K)) [%] | inhibition at 0.01 µM (ABL(E255K)) [%] | inhibition at 0.01 µM (ACK) [%] | inhibition at 0.01 µM (ARG) [%] | inhibition at 0.01 µM (BLK) [%] | inhibition at 0.01 µM (DDR2) [%] | inhibition at 0.01 µM (FGR) [%] | inhibition at 0.01 µM (FRK) [%] | inhibition at 0.01 µM (FYN(isoform a)) [%] | inhibition at 0.001 µM (HCK) [%] | inhibition at 0.01 µM (HCK) [%] | inhibition at 0.001 µM (LYNa) [%] | inhibition at 0.01 µM (LYNa) [%] | inhibition at 0.01 µM (PDGFRα) [%] | inhibition at 0.01 µM (PDGFRβ) [%] | inhibition at 0.001 µM (SRC) [%] | inhibition at 0.01 µM (SRC) [%] | inhibition at 0.001 µM (YES) [%] | further results |
| --- | --- | --- | --- | --- | --- | --- | --- | --- | --- | --- | --- | --- | --- | --- | --- | --- | --- | --- | --- | --- | --- |
| [2H]c1cc(C)c(NC(=O)c2cnc(Nc3cc(N4CC[C@@H](N)C4)nc(C)n3)s2)c(Cl)c1 [Compound VII, N-(2-chloro-4-deutero-6-methylphenyl)-2-[[2-methyl-6-((R)-3-aminopyrrolidin-1-yl)pyrimidin-4-yl]amino]thiazole-5-carboxamide] | > 50 | > 50 | > 50 | > 50 | > 50 | > 50 | > 50 | > 50 | > 50 | > 50 | > 50 | > 50 | > 50 | > 50 | > 50 | > 50 | > 50 | > 50 | > 50 | > 50 | inhibition at 0.01 µM (YES): > 50%; inhibition at 0.01 µM (PIK3CA/PIK3R1): > 50%; activity to inhibit kinases [1]: potent activity; IC50 (SU-DHL-4): < 20 nM; IC50 (Mino): < 50 nM |
| Cc1nc(Nc2ncc(C(=O)Nc3c(C)cccc3Cl)s2)cc(N2CCCCC2)n1 [Compound VIII, N-(2-chloro-6-methylphenyl)-2-[[2-methyl-6-(piperidin-1-yl)pyrimidin-4-yl]amino]thiazole-5-carboxamide] | > 50 | > 50 | > 50 | > 50 | > 50 | > 50 | > 50 | > 50 | > 50 | > 50 | > 50 | > 50 | > 50 | > 50 | > 50 | > 50 | > 50 | > 50 | > 50 | > 50 | inhibition at 0.01 µM (YES): > 50%; inhibition at 0.01 µM (PIK3CA/PIK3R1): > 50%; activity to inhibit kinases [1]: potent activity; IC50 (SU-DHL-4): < 20 nM; IC50 (Mino): < 50 nM |
| Cc1nc(Nc2ncc(C(=O)Nc3c(C)cccc3Cl)s2)cc(N2CC[C@H](O)C2)n1 [Compound X, N-(2-chloro-6-methylphenyl)-2-[[2-methyl-6-((S)-3-hydroxypyrrolidin-1-yl)pyrimidin-4-yl]amino]thiazole-5-carboxamide] | > 50 | > 50 | > 50 | > 50 | > 50 | > 50 | > 50 | > 50 | > 50 | > 50 | > 50 | > 50 | > 50 | > 50 | > 50 | > 50 | > 50 | > 50 | > 50 | > 50 | inhibition at 0.01 µM (YES): > 50%; inhibition at 0.01 µM (PIK3CA/PIK3R1): > 50%; activity to inhibit kinases [1]: potent activity; IC50 (SU-DHL-4): < 20 nM; IC50 (Mino): < 50 nM |
| Cc1nc(Nc2ncc(C(=O)Nc3c(C)cccc3Cl)s2)cc(N2CC[C@@H](O)C2)n1 [Compound XI, N-(2-chloro-6-methylphenyl)-2-[[2-methyl-6-((R)-3-hydroxypyrrolidin-1-yl)pyrimidin-4-yl]amino]thiazole-5-carboxamide] | > 50 | > 50 | > 50 | > 50 | > 50 | > 50 | > 50 | > 50 | > 50 | > 50 | > 50 | > 50 | > 50 | > 50 | > 50 | > 50 | > 50 | > 50 | > 50 | > 50 | inhibition at 0.01 µM (YES): > 50%; inhibition at 0.01 µM (PIK3CA/PIK3R1): > 50%; activity to inhibit kinases [1]: potent activity; IC50 (SU-DHL-4): < 20 nM; IC50 (Mino): < 50 nM |
